Each structure is given as a SMILES string.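 Grown in 96-well plates, cells were treated for 48 hours with each compound at five concentrations. Insufficient inhibition: endpoint recorded as highest concentration tested. The concentration for full growth arrest is given as TGI.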 Where a SMILES comes first, the peptide text is derived from it. [ ]: non-standard residue; d: D form. Where only a bound is given, the exact number is not on record here.

Test systems include A498 renal; RXF 393 renal; NCI/ADR-RES ovarian; TK-10 renal; IGROV1 ovarian; RPMI-8226 leukemia; SF-268 CNS; COLO 205 colon; MOLT-4 leukemia; HL-60(TB) leukemia.
Common to all, as to experiment: NCI-60 cell line screen, 48 h

Turning to `N=c1ncn(C/C=C/c2ccccc2)c2nc[nH]c12`, the TGI in the assay on A498 renal, in the assay on RXF 393 renal, with NCI/ADR-RES ovarian, in the assay on TK-10 renal, in the assay on IGROV1 ovarian and with RPMI-8226 leukemia was greater than 100 µM throughout. In addition, the values for the TGI in the assay on SF-268 CNS, with COLO 205 colon and in the assay with MOLT-4 leukemia were greater than 100 µM, greater than 100 µM and 36.5 µM, respectively.

Turning to `O=C(CCCCCNC(=O)c1ccc(Cl)cc1)NO`, the TGI in the assay with RXF 393 renal is 19.8 µM; in the assay with NCI/ADR-RES ovarian, 5.07 µM; in the assay with TK-10 renal, 16.4 µM; in the assay with IGROV1 ovarian, 25 µM; with RPMI-8226 leukemia, greater than 100 µM; in the assay with SF-268 CNS it was 57.1 µM. The TGI in the assay with HL-60(TB) leukemia was 16.1 µM; in the assay with COLO 205 colon, 10.5 µM; in the assay with MOLT-4 leukemia it was greater than 100 µM.

Consider `Cc1cn(C2CC(O)C(Cn3nncc3Cn3nc(Br)c(=O)[nH]c3=O)O2)c(=O)[nH]c1=O` (centres undefined), for which the TGI in the assay with A498 renal, in the assay with RXF 393 renal, in the assay with NCI/ADR-RES ovarian, in the assay on TK-10 renal, in the assay on IGROV1 ovarian and in the assay with RPMI-8226 leukemia was greater than 100 µM throughout. The TGI in the assay on SF-268 CNS, in the assay on COLO 205 colon and in the assay with MOLT-4 leukemia was greater than 100 µM each time.

Take `CC(C)C[C@H](NC(=O)[C@H](CC(C)C)NC(=O)[C@@H](Cc1c[nH]c2ccccc12)NC(=O)[C@H](Cc1ccccc1)NC(=O)[C@@H](Cc1c[nH]c2ccccc12)NC(=O)[C@H](CCC(N)=O)NC(=O)[C@@H](CCC(N)=O)NC(=O)[C@@H]1CCCN1C(=O)[C@@H](CCCCN)NC(=O)[C@H]1CCCN1C(=O)[C@H](N)CCCN=C(N)N)C(N)=O` (H-[dR][dP][dK]P[dQ]Q[dW]F[dW]LL-NH2): the TGI with A498 renal is 88.1 µM; in the assay on RXF 393 renal, greater than 100 µM; in the assay with NCI/ADR-RES ovarian it was greater than 100 µM; in the assay on IGROV1 ovarian, greater than 100 µM; with RPMI-8226 leukemia, greater than 100 µM; in the assay on SF-268 CNS, greater than 100 µM. Also, the TGI in the assay on HL-60(TB) leukemia is greater than 100 µM; with COLO 205 colon it was greater than 100 µM; with MOLT-4 leukemia, greater than 79.5 µM.

Consider `COc1ccc(/C(=N/O)c2ccccc2C2=Nc3ccccc3C(NCc3ccccc3)O2)cc1C` (centres undefined), for which the TGI in the assay with RXF 393 renal, with NCI/ADR-RES ovarian, in the assay on IGROV1 ovarian, with RPMI-8226 leukemia, in the assay with SF-268 CNS and in the assay on HL-60(TB) leukemia was greater than 100 µM throughout. Also, the figures for the TGI with COLO 205 colon and in the assay on MOLT-4 leukemia were 38.9 µM and greater than 100 µM, respectively.

Consider `COc1cc(C2c3cccc4cccc(c34)C3CCC(=O)N32)cc(OC)c1O` (centres undefined), for which the TGI with A498 renal, in the assay on RXF 393 renal, with NCI/ADR-RES ovarian, with IGROV1 ovarian, in the assay with RPMI-8226 leukemia and with HL-60(TB) leukemia was greater than 50 µM throughout. Also, the TGI in the assay with COLO 205 colon and in the assay on MOLT-4 leukemia was greater than 50 µM in each case.

Take `COC(=O)N[C@@H]1C[C@H]2CC[C@]1(O[Si](C(C)C)(C(C)C)C(C)C)C(=O)C2`: the TGI worked out at 44.3 µM in the assay with A498 renal; 35.4 µM with NCI/ADR-RES ovarian; 30.6 µM in the assay with TK-10 renal; 32 µM with IGROV1 ovarian; 69.8 µM in the assay with RPMI-8226 leukemia; 28.6 µM in the assay on SF-268 CNS. Moreover, the TGI was 78.7 µM with HL-60(TB) leukemia, greater than 100 µM in the assay on COLO 205 colon and greater than 100 µM in the assay with MOLT-4 leukemia.

Regarding `[N-]=[N+]=Nc1cc(=O)[nH]c2ccccc12`, the TGI in the assay with RXF 393 renal, in the assay with NCI/ADR-RES ovarian, with TK-10 renal, in the assay with IGROV1 ovarian, in the assay with RPMI-8226 leukemia and in the assay with SF-268 CNS was greater than 100 µM throughout. In addition, the TGI in the assay on COLO 205 colon and in the assay with MOLT-4 leukemia was greater than 100 µM each time.

Turning to `N#Cc1sc2c(c1OC(=O)c1ccco1)c(=O)n(-c1ccccc1)c(=S)n2-c1ccccc1`, the TGI is 69.6 µM with RXF 393 renal; 82 µM in the assay with NCI/ADR-RES ovarian; greater than 100 µM in the assay with TK-10 renal; greater than 10 µM in the assay on IGROV1 ovarian; 59.3 µM in the assay on RPMI-8226 leukemia; greater than 100 µM with SF-268 CNS. In addition, the TGI in the assay with HL-60(TB) leukemia was greater than 100 µM; with COLO 205 colon it was 61.5 µM; in the assay with MOLT-4 leukemia, 43.4 µM.

`CN(C)C(=O)N1N[C@H](c2ccccc2)[C@@H]1c1ccccc1`: the TGI in the assay with A498 renal, with RXF 393 renal, in the assay with NCI/ADR-RES ovarian, in the assay on TK-10 renal, in the assay on IGROV1 ovarian and in the assay on RPMI-8226 leukemia was greater than 100 µM in each case. The TGI in the assay with COLO 205 colon and in the assay on MOLT-4 leukemia was greater than 100 µM each time.

For the compound `Cc1cc2nc3c(C#N)c(C)c(CCCl)c(Cl)n3c2cc1C`, the TGI stood at 7.64 µM in the assay on A498 renal; 21.5 µM in the assay with NCI/ADR-RES ovarian; 4.24 µM with TK-10 renal; 3.93 µM in the assay with IGROV1 ovarian; 5.49 µM with RPMI-8226 leukemia; 3.76 µM in the assay with SF-268 CNS. Further, the TGI in the assay with HL-60(TB) leukemia was determined as 5.57 µM; with COLO 205 colon, 14.8 µM; with MOLT-4 leukemia, 6.95 µM.

Regarding `O=C1CCCC1CC(CN1CCOCC1)Sc1nnnn1-c1ccccc1` (centres undefined), the TGI in the assay with A498 renal is greater than 100 µM; with RXF 393 renal, greater than 100 µM; in the assay with NCI/ADR-RES ovarian, greater than 100 µM; in the assay on IGROV1 ovarian, greater than 100 µM; in the assay on RPMI-8226 leukemia it was greater than 100 µM; in the assay on HL-60(TB) leukemia, 82.2 µM. For the same compound, the TGI is 33.1 µM in the assay with COLO 205 colon and greater than 100 µM with MOLT-4 leukemia.

For `COC(=O)C1=C(C)NC(C)=C(C(=O)OC)C1c1cccc(/[N+]([O-])=C/c2ccccc2)c1`, the TGI in the assay on RXF 393 renal is 30.3 µM; in the assay with NCI/ADR-RES ovarian, 58 µM; with TK-10 renal, greater than 100 µM; in the assay with IGROV1 ovarian, greater than 100 µM; in the assay on RPMI-8226 leukemia it was greater than 100 µM; in the assay on SF-268 CNS, greater than 100 µM. The TGI came out at 71 µM with HL-60(TB) leukemia, 30.5 µM in the assay with COLO 205 colon and 68 µM with MOLT-4 leukemia.

Regarding `CCCN=C1NC(C)=CSC(Nc2ccccc2)=C1C#N`, the TGI in the assay with A498 renal, with RXF 393 renal, in the assay on NCI/ADR-RES ovarian, in the assay with TK-10 renal, in the assay with RPMI-8226 leukemia and in the assay on SF-268 CNS was greater than 100 µM each time. In addition, the TGI in the assay on COLO 205 colon and with MOLT-4 leukemia was greater than 100 µM in each case.

With `CC(C)(C)OC(=O)N1C(=O)C2CCCC21` (centres undefined), the TGI in the assay on A498 renal, in the assay with RXF 393 renal, in the assay on NCI/ADR-RES ovarian, with IGROV1 ovarian, with RPMI-8226 leukemia and with SF-268 CNS was greater than 100 µM throughout. The TGI with HL-60(TB) leukemia, in the assay with COLO 205 colon and in the assay with MOLT-4 leukemia was greater than 100 µM in each case.

For the origin of these results see PubChem BioAssay (NCI).
